Columns and labels:
[1] = test system: Zucker Diabetic Fatty rats; assay: HOMA-index in ZDF rats under sc relaxin; type: in vivo, rat; details: 10-week old male ZDF rats, sc 500 μg/kg per day, within the 48-hour period
Description: The homeostatic model assessment (HOMA=Insulin (μU/mi)×Glucose (mmol/l)/22.5) allows a quantification of insulin resistance and beta-cell function on the basis of mathematical equations describing glucose regulation as a feedback loop (see Matthews D R at al. Diabetologia 1985; 28(7): 412-9); Turner R C et al, Metabolism 1985; 28 (11): 1086-96). In order to assess the effects of relaxin on a diabetic metabolism we determined the HOMA of 10-week old male Zucker Diabetic Fatty rats (#25) pre-, during and post subcutanous administration of porcine relaxin (500 μg/kg rat per day). Thus, we determined the glucose and insulin levels in serum of 25 ZDF rats prior and 48 hours after sc administration of porcine relaxin. This was completed by follow-up determinations of glucose and insulin concentrations in serum 48 hours post the termination of the administration of porcine relaxin.

[2] = test system: patients having type II diabetes or impaired glucose tolerance; assay: HOMA-index in human patients under i.v. H2 relaxin; type: in vivo; details: i.v. over 16 hrs
Description: In a study approved by the local ethical committee (Charité, Berlin, Germany) twelve patients (n=12) having type II diabetes or impaired glucose tolerance received intravenous synthetic H2 relaxin over a period of 16 hrs followed by a 24-hr follow-up. The anti-diabetic treatment of those patients was not varied. The improved HOMA-2 model used was in the present example because it reflects better human physiology. A HOMA of >2 indicates a potential insulin resistance; a HOMA of >2.5 beginning insulin resistance and a HOMA>5.0 is an average value of insulin resistance in untreated patients with manifest type-2 diabetes.
Of those twelve patients in this study two patients received sequential treatment for 8 hours each with dosages equivalent to 10 and 30 μg/kg of subject body weight per day, 6 patients received sequential treatment with 240 and 480 μg/kg of subject body weight per day, and another 4 patients received a constant infusion of 960 μg/kg of subject body weight per day. This was completed by follow-up determinations of glucose and insulin levels in serum 24 hours post termination of the i.v. relaxin administration.

[3] = test system: rat insulinoma cells (INS-1 cells); assay: Insulin secretion of INS-1 cells under sustained glucose concentrations (rat insulin ELISA); type: cell-based
Experimental: In a further study we examined whether porcine relaxin has any effect on insulin expression and/or secretory capacity of pancreatic beta-cells. 2.5×10^5 rat insulinoma cells (INS-1 cells; see Mergler S et al, in Cellular Signalling (2008), doi: 10.1016/j.cellsig.2008.08.015) were plated in a 24-well plate and grown for three days in […] medium with supplements (Moore G. E. et. al., Culture of Normal Human Leukoctyes.” JAMA, v. 199, 519-524 (1967). On the day of the experiment, the medium was removed, and the INS-1 cells were washed three times and then preincubated for 30 min in KRB (Krebs-Ringer buffer: 115 mM NaCl, 5.9 mM KCl, 1.2 mM MgCl2, 1.2 mM NaH2PO4, 1.2 mM Na2PO4, 2.5 mM CaCl2, 25 mM NaHCO3, pH 7.4) comprising 0.5% BSA and 3.3 mM glucose. Cells were washed again with phosphate buffered saline (PBS: 137 mM NaCl, 2.7 mM KCl, 12 mM phosphate, pH 7.4) and incubated with different physiological and pathological glucose concentrations (2.8, 5.6, 11.2, 16.7, 33.2 mmol/L) for 48 hrs. After another washing, the amounts of insulin secreted by the INS-1 cells into the supernatant over another 48 hrs under the very same glucose conditions were determined using a rat insulin ELISA kit (units: ng/dl) (Immundiagnostik AG, Bensheim, Del.—Article No. KA80INSRT1). […]

[4] = Effect of relaxin on glucose levels in blood; details: in vivo
[5] = cited from earlier work
[6] = over the entire dose range, previous pilot study (Dschietzig et al. 2009); cited from earlier work

Substance: porcine relaxin-1 [porcine RLX]
- HOMA value of each animal (FIG. 1A) [1]: reduced HOMA value

Substance: human relaxin-2 (H2 relaxin)
- homeostatic model assessment (HOMA) in each diabetic patient (FIG. 2A) ([2]; 10 to 960 μg/kg per day, diabetic patients): improved
- homeostatic model assessment (HOMA) in non-diabetic subjects ([2]; subjects having an initial HOMA of less than 2.0): no or little impact

Substance: relaxin
- insulin secretion (as determined in cell supernatants) ([3]; 10 nM porcine relaxin-1, baseline and high-glucose conditions, secretion period of 48 hours, INS-1 cells): increased insulin secretion
- high glucose-induced down-regulation of insulin expression and/or secretory capacity ([3]; 10 nmol/L porcine relaxin-1, cultured rat INS-1 cells, n=6, P<0.05 vs. control): efficient in preventing
- direct effect on glucose levels in blood [4]: not found any direct effect
- half-life in vivo [5]: about two
- clinically adverse effects [6]: no clinically adverse effects were observed
